Earlier results as cited in publication PMC10534093 (Food Chemistry: X, 2023).

System: α-glucosidase
Conditions: Table 1; ref BIOPEP-UWM and AHTPDB

Row | Known activity in the database | Substance
1 | Alpha-glucosidase inhibitor | TFSEYPPLGR
2 | Alpha-glucosidase inhibitor | IVTVEGGLSVISPKW
3 | Alpha-glucosidase inhibitor | IQAEGGLT [reference compound]

System: ACE
Conditions: Table 2; ref BIOPEP-UWM and AHTPDB

Row | Substance | Known activity in the database
4 | PFSFLVPPQESQR | ACE inhibitor
5 | EGEQPRPFPFP | ACE inhibitor
6 | YEAGVVPPGARFEPPR | ACE inhibitor
7 | RPSIGNLAGANSLLNALPE | ACE inhibitor
8 | PLDLTSFVLH | ACE inhibitor
9 | VISQIPSQVQELAFPG | ACE inhibitor
10 | PIYSNKLGKFF | ACE inhibitor
11 | RPSIGNLAGANSLLNALP | ACE inhibitor
12 | PSEVEAVFKPLGPEVGELRV | ACE inhibitor
13 | PSSPFTDLWDPRRVGD | ACE inhibitor
14 | IGTLAGANSLLNALP | ACE inhibitor
15 | DRDSYNLHPGDAQRIPAGTTY | ACE inhibitor
16 | TPMIGTLAGANSLLNALP | ACE inhibitor
17 | NNPFKFLVPPQESQKR | ACE inhibitor
18 | DRPSIGNLAGANSLLNALP | ACE inhibitor
19 | WGPLVNPESQQGSPR | ACE inhibitor
20 | QIGLF [reference compound] | ACE inhibitor

Molecular target: α-glucosidase
Conditions: ref Zhang, Wang, & Li, 2016

Row | IC50 against α-glucosidase [µg/mL] | Substance
21 | 93 | NSPR

System: ACE
Conditions: ref Kheeree et al., 2020

Row | IC50 against ACE [µg/mL] | Substance
22 | 8 | GPAGPAGL

Same assay, conditions: ref Sitanggang, Putri, Palupi, Hatzakis, & Budijanto, 2021

Row | IC50 against ACE [µg/mL] | Substance
23 | 400 | IPPGVPYWT

Same assay, conditions: ref Tu et al., 2018

Row | IC50 against ACE [µg/mL] | Substance
24 | 2830 | NMAINPSKENLCSTFCK

Same assay, conditions: reference peptide; ref Yu, Zhao, Liu, Lu, & Chen, 2011

Row | IC50 against ACE [µg/mL] | Substance
25 | 420 | QIGLF [reference compound]
